Measured values published in patent US9834571B2, “Compounds for inhibiting cell proliferation in EGFR-driven cancers” (ARIAD Pharmaceuticals, Inc., priority 2012, dated 2017).
Where two headings read alike, the source gives them in different places.

Assays:
[1] = target: T1, BaF3 cells expressing the target EGFR mutations (Homo sapiens, UniProt P00533, T790M, cells depend on it, form not given); experiment: Antiproliferative activity (MTT) against BaF3 cells expressing the target EGFR mutations; type: cell-based; conditions: BAF3 EGFR DEL T790M PURO POOL cells, read-out: IC50, BAF3 EGFR DEL T790M PURO POOL
T1 construct: IC50, BAF3 EGFR DEL T790M PURO POOL; other: BAF3 EGFR DEL T790M PURO POOL cells, MTT; other: BAF3 EGFR DEL T790M PURO POOL cells; MTT
T1 sequence (P00533 with tags, fused parts or gaps DEL746-750/T790M, form open): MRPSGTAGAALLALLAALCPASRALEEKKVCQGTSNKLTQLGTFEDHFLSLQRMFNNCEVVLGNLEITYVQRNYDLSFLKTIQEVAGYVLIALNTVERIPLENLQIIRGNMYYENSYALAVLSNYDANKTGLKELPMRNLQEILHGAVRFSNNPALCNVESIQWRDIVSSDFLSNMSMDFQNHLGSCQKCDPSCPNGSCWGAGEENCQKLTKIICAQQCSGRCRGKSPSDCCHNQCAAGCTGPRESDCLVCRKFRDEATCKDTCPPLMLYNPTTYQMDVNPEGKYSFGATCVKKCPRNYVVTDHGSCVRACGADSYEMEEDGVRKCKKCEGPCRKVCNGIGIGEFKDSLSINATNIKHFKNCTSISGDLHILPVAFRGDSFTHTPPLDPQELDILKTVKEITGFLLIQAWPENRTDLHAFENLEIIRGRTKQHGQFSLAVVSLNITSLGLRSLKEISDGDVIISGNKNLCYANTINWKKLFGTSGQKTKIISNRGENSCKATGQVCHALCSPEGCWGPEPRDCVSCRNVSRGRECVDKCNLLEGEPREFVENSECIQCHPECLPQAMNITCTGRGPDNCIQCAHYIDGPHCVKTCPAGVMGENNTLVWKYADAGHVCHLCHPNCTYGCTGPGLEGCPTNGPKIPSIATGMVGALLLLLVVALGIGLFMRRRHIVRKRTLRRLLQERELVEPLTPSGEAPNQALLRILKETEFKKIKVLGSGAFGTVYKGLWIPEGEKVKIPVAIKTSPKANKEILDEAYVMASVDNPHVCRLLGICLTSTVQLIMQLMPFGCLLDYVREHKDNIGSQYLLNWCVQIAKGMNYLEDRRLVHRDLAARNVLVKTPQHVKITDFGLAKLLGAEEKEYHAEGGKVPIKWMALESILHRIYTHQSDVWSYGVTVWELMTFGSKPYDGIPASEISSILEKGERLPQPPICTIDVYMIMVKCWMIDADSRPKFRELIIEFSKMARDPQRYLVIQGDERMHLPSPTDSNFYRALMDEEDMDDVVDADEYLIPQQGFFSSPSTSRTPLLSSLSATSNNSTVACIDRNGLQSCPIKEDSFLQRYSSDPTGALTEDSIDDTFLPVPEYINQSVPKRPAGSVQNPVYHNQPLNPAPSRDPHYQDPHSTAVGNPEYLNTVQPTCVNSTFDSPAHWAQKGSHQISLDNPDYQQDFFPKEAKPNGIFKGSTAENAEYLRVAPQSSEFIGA
Procedure, shortened: (§1)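 Growth inhibition of EGFR-mutant BaF3 cells was assessed with an MTT assay. A BaF3 line expressing wildtype EGFR served as comparator.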

[2] = target: T2, BaF3 cells expressing the target EGFR mutations (Homo sapiens, UniProt P00533, T790M/L858R, cells depend on it); experiment: as above; type: cell-based; conditions: BAF3 EGFR L858R-T790M PURO POOL cells, read-out: IC50, BAF3 EGFR L858R-T790M PURO POOL
T2 construct: IC50, BAF3 EGFR L858R-T790M PURO POOL; other: BAF3 EGFR L858R-T790M PURO POOL cells, MTT; IC50, BAF3 EGFR L858R-T790M PURO POOL; other: BAF3 EGFR L858R-T790M PURO POOL cells; MTT
T2 sequence (P00533 whole entry T790M/L858R): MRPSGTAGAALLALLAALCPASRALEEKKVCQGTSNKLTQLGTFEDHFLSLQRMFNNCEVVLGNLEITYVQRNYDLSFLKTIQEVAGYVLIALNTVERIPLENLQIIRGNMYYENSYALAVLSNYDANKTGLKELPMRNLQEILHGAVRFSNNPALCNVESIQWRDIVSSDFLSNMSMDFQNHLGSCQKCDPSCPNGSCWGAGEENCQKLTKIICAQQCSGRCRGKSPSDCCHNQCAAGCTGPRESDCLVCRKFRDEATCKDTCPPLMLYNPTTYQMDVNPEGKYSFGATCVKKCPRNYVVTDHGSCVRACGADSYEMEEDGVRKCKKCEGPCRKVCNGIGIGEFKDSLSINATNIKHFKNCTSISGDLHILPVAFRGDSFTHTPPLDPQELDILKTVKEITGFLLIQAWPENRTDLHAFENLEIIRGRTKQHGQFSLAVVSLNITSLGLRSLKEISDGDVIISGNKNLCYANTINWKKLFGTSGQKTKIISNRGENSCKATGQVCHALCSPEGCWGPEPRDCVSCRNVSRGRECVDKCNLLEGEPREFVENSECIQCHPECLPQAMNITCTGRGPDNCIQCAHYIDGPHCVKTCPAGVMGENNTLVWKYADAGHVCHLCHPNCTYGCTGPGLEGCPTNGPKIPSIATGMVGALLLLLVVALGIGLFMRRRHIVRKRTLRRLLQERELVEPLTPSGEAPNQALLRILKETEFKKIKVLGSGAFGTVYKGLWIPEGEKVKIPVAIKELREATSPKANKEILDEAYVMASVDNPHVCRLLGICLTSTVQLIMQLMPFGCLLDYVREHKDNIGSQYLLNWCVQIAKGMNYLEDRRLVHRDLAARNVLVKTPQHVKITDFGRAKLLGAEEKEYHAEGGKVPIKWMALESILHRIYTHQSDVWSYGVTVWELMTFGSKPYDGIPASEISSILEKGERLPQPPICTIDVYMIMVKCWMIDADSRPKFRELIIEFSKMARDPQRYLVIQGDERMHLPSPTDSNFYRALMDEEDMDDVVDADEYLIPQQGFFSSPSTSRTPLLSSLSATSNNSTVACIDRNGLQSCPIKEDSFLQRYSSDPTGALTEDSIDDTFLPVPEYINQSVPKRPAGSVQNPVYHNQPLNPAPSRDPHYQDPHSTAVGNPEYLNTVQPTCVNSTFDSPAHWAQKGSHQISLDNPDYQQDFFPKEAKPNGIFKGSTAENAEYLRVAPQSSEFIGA
Procedure, shortened: as §1

EGFR L858R/T790M = EGFR L858R/T790M (Homo sapiens, UniProt P00533, L858R/T790M); experiment: Kinase inhibitory activity against EGFR bearing the L858R/T790M double mutation; type: biochemical; conditions: 10 μM ATP, read-out: IC50 for kinase inhibition, EGFR L858R T790M
EGFR L858R/T790M, sequence (P00533 25-1210 T790M/L858R): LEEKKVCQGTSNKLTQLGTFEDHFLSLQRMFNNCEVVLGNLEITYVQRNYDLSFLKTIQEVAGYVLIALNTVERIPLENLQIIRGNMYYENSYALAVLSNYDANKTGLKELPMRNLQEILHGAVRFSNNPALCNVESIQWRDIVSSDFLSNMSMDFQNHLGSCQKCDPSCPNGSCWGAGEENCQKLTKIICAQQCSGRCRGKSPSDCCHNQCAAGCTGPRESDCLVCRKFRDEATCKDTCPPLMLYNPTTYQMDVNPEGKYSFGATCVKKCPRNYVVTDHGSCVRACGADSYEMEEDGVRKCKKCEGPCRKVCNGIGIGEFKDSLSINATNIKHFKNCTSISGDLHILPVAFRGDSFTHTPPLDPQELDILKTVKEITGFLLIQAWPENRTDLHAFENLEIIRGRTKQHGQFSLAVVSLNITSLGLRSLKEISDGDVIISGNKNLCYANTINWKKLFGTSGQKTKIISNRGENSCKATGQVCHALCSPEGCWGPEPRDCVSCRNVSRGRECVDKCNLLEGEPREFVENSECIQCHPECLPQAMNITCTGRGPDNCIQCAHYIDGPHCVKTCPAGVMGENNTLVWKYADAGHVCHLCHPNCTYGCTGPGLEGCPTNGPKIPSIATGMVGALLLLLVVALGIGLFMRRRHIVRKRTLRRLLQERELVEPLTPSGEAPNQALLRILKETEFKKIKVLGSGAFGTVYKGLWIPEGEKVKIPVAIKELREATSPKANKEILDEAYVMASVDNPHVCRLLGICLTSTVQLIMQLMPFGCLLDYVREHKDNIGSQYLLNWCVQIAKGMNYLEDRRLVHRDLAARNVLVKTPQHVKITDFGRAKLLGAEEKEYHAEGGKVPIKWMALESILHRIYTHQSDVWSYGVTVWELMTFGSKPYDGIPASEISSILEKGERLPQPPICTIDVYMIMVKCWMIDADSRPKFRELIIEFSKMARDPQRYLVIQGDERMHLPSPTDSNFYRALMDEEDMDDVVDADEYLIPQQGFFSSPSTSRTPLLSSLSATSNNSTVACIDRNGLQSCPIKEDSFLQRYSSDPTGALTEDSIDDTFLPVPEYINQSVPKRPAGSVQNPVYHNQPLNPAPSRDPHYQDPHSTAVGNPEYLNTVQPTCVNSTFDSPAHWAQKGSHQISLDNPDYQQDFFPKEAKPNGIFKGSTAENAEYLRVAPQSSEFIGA
Procedure, shortened: (§2)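 Each assay used 10 μM ATP. Inhibitors were tested as 10-point curves, highest concentration 3 μM, no replicates.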

[3] = target: human EGFR (native sequence) (Homo sapiens, UniProt P00533); experiment: Kinase inhibitory activity against human EGFR (native sequence); type: biochemical; conditions: 10 μM ATP, read-out: IC50 for kinase inhibition, EGFR
Procedure, shortened: as §2

[4] = tested on: BaF3 cells expressing wildtype EGFR; experiment: Antiproliferative activity (MTT) against control BaF3 cells expressing wildtype EGFR; type: cell-based; conditions: Mus musculus
Procedure, shortened: as §1

EGFR L858R = EGFR L858R (Homo sapiens, UniProt P00533, L858R); experiment: Kinase inhibitory activity against EGFR bearing the L858R mutation; type: biochemical; conditions: 10 μM ATP, read-out: IC50 for kinase inhibition, EGFR L858R
EGFR L858R, sequence (P00533 25-1210 L858R): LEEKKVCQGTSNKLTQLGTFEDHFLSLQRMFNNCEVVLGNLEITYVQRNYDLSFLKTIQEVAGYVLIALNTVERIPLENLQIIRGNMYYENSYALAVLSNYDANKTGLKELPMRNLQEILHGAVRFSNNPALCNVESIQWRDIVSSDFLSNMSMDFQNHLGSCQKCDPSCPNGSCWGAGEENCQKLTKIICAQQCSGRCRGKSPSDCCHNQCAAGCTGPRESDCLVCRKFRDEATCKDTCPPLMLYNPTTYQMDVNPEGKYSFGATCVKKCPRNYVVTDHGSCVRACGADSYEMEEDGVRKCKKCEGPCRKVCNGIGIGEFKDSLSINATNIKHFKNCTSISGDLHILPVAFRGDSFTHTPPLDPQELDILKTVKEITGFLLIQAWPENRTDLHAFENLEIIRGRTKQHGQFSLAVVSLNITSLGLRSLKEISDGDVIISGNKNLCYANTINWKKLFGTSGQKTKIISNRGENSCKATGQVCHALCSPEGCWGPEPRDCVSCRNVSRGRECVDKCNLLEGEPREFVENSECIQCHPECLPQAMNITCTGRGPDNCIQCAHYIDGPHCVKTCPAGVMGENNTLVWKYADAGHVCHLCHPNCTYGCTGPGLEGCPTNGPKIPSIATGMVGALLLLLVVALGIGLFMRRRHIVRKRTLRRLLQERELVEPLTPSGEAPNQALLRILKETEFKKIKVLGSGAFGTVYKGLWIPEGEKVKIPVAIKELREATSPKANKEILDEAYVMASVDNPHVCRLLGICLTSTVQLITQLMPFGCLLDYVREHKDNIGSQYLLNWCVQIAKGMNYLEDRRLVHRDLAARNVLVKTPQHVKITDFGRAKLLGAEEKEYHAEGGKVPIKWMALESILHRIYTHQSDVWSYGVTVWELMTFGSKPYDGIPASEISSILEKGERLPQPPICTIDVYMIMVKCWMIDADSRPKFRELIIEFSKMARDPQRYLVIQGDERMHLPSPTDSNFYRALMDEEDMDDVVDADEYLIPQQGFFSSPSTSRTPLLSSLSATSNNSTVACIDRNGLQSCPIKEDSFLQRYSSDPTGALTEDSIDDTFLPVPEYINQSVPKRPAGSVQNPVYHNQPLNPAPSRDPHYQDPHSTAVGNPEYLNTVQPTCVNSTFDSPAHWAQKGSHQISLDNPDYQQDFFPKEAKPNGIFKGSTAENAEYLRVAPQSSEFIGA
Procedure, shortened: as §2

[5] = EGFR L858R/T790M double mutation
[6] = 10 pt curves, 3 μM top concentration

Row | GI50 [1] [µM] | GI50 [2] [µM] | IC50 (EGFR L858R/T790M; [5]) [µM] | IC50 ([3]; human EGFR native sequence) [µM] | IC50 (EGFR L858R; EGFR L858R) [µM] | IC50 (EGFR L858R/T790M; [6]) [µM] | IC50 [3, 6] [µM] | IC50 (EGFR L858R; [6]) [µM] | Compound | IC50 ([4]; BAF3 PARENTAL cells (control)) [µM] | IC50 ([4]; BAF3 parental cells) [µM]
1 | < 0.05 | < 0.05 | < 0.05 | ≥ 0.25 | < 0.05 | – | – | – | C=CC(=O)Nc1cc(Nc2ncc(Cl)c(Nc3ccccc3P(C)(C)=O)n2)c(OC)cc1C#CCN(CC)CC [Example 96, N-(5-((5-chloro-4-((2-(dimethylphosphoryl)phenyl)amino)pyrimidin-2-yl)amino)-2-(3-(diethylamino)prop-1-yn-1-yl)-4-methoxyphenyl)acrylamide] | ≥ 0.25 | –
2 | < 0.05 | < 0.05 | < 0.05 | < 0.05 | < 0.05 | – | – | – | COc1cc(F)c(NC(=O)C#CCCN2CCCCC2)cc1Nc1ncc(Cl)c(Nc2ccccc2P(C)(C)=O)n1 [Example 88, N-(5-((5-chloro-4-((2-(dimethylphosphoryl)phenyl)amino)pyrimidin-2-yl)amino)-2-fluoro-4-methoxyphenyl)-5-(piperidin-1-yl)pent-2-ynamide] | ≥ 0.25 | –
3 | ≥ 0.25 | ≥ 0.25 | 0.101 to 0.25 | ≥ 0.25 | ≥ 0.25 | – | – | – | COc1ccc(NC(=O)/C=C\C(=O)O)cc1Nc1ncc(Cl)c(Nc2ccccc2P(C)(C)=O)n1 [Example 61, (Z)-4-((3-((5-chloro-4-((2-(dimethylphosphoryl)phenyl)amino)pyrimidin-2-yl)amino)-4-methoxyphenyl)amino)-4-oxobut-2-enoic acid] | ≥ 0.25 | –
4 | < 0.05 | < 0.05 | < 0.05 | < 0.05 | < 0.05 | – | – | – | C=CC(=O)Nc1cc(Nc2ncc(Cl)c(Nc3ccccc3P(C)(C)=O)n2)c(OC)cc1N1CC(N2CCCC2)C1 [Example 31, N-(5-((5-chloro-4-((2-(dimethylphosphoryl)phenyl)amino)pyrimidin-2-yl)amino)-4-methoxy-2-(3-(pyrrolidin-1-yl)azetidin-1-yl)phenyl)acrylamide] | ≥ 0.25 | –
5 | < 0.05 | < 0.05 | – | – | – | < 0.05 | < 0.05 | < 0.05 | C=CC(=O)Nc1cc(Nc2ncc(Cl)c(Nc3ccccc3P(C)(C)=O)n2)c(OC)cc1C#CCN(C)C1CCCC1 [Example 168, N-(5-((5-chloro-4-((2-(dimethylphosphoryl)phenyl)amino)pyrimidin-2-yl)amino)-2-(3-(cyclopentyl(methyl)amino)prop-1-yn-1-yl)-4-methoxyphenyl)acrylamide] | – | < 0.05
6 | < 0.05 | < 0.05 | – | – | – | < 0.05 | < 0.05 | < 0.05 | C=CC(=O)Nc1ccc(OC)c(Nc2ncc(Cl)c(Nc3ccc(OCCCN(C)C)cc3P(C)(C)=O)n2)c1 [Example 126, N-(3-((5-chloro-4-((4-(3-(dimethylamino)propoxy)-2-(dimethylphosphoryl)phenyl)amino)pyrimidin-2-yl)amino)-4-methoxyphenyl)acrylamide] | – | ≥ 0.25
7 | < 0.05 | 0.101 to 0.25 | < 0.05 | < 0.05 | < 0.05 | – | – | – | C=CC(=O)Nc1cc(Nc2ncc(Cl)c(Nc3ccccc3P(C)(C)=O)n2)c(OC)cc1N1CCC(N(C)C)CC1 [Example 23, N-(5-((5-chloro-4-((2-(dimethylphosphoryl)phenyl)amino)pyrimidin-2-yl)amino)-2-(4-(dimethylamino)piperidin-1-yl)-4-methoxyphenyl)acrylamide] | ≥ 0.25 | –
8 | < 0.05 | < 0.05 | < 0.05 | < 0.05 | < 0.05 | – | – | – | COc1ccc(NC(=O)C#CCN(C)C)cc1Nc1ncc(Cl)c(Nc2ccccc2P(C)(C)=O)n1 [Example 81, N-(3-((5-chloro-4-((2-(dimethylphosphoryl)phenyl)amino)pyrimidin-2-yl)amino)-4-methoxyphenyl)-4-(dimethylamino)but-2-ynamide] | ≥ 0.25 | –
